Reference: PubChem BioAssay (NCI)
Values joined by “and” are separate entries in the source; they are usually repeats but may differ in a detail not shown here. Equal values may be shown once.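 Exposure lasted 48 hours, with cells grown in 96-well plates and compounds tested at five concentrations. GI50 is the concentration that inhibits growth by half. TGI is the concentration that stops growth completely.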

What was measured:
Assay in all cases: NCI-60 cell line screen, 48 h
786-0 renal = tested on: 786-0 renal
A498 renal = tested on: A498 renal
CAKI-1 renal = tested on: CAKI-1 renal
DMS 114 small cell lung = tested on: DMS 114 small cell lung
HT29 colon = tested on: HT29 colon
OVCAR-4 ovarian = tested on: OVCAR-4 ovarian
SF-268 CNS = tested on: SF-268 CNS
U251 CNS = tested on: U251 CNS
MDA-MB-435 = tested on: MDA-MB-435
MDA-N = tested on: MDA-N

| SMILES | TGI (786-0 renal) | TGI (A498 renal) [µM] | TGI (CAKI-1 renal) [µM] | TGI (DMS 114 small cell lung) [µM] | TGI (HT29 colon) | TGI (OVCAR-4 ovarian) | TGI (SF-268 CNS) | TGI (U251 CNS) | TGI (MDA-MB-435) [µM] | TGI (MDA-N) [µM] | GI50 (786-0 renal) | GI50 (OVCAR-4 ovarian) |
| --- | --- | --- | --- | --- | --- | --- | --- | --- | --- | --- | --- | --- |
| COC(=O)CC1(O)C(=O)OCc2c1cc1n(c2=O)Cc2c-1nc1ccccc1c2OC (stereo not given) | 0.813 µM | 11.5 | 4.62 | > 33.1 | > 100 µM | > 36.1 µM | > 34 µM | 2.11 µM | – | – | – | – |
| Cc1ccc(C)c2c1C1CCCCC3(OCCCO3)C21O (stereo not given) | > 100 µM | > 100 | > 100 | > 100 | > 100 µM | > 100 µM | > 100 µM | > 100 µM | – | – | – | – |
| O=C(N/C(=C\c1ccc([N+](=O)[O-])cc1)c1nc2ccccc2s1)c1ccccc1 | 34.1 µM | > 100 | 95.8 | 68.4 | > 100 µM | 81.3 µM | 56.2 µM | > 100 µM | – | – | – | – |
| C=C1C(=O)OC2CC(C)C(/C=C/C(C)=O)=CCC12 (stereo not given) | > 100 µM | > 100 | > 100 | – | > 100 µM | > 100 µM | > 100 µM | > 100 µM | > 100 | > 100 | – | – |
| C/C=C/C=C/c1cc2cc3c(c(O)c2c(=O)[nH]1)C1(CC3)C(O)=c2c(=O)c3c(=O)cc(OC)c(=O)c=3c(=O)c2=C1O (stereo not given) | 4.37 µM and 8.39 µM | – | – | 4.83 | 1.37 µM and 13.5 µM | 11.3 µM and 8.37 µM | 17.6 µM and 40.3 µM | 0.851 µM and 5.59 µM | 10.8 | 11.9 | 0.41 µM and 1.91 µM | 0.311 µM and 1.08 µM |
| Cc1cccc2c(=O)c3c(O)cc(O)cc3n(C)c12 | > 100 µM | 98.7 | > 100 | – | > 100 µM | > 100 µM | > 100 µM | > 100 µM | > 100 | > 100 | – | – |
| CCOc1ccc2nc(NC(=O)C(=O)C3C(=O)C(CC4C(=O)c5ccccc5C4=O)C(=O)CC3(C)C)sc2c1 (stereo not given) | > 100 µM | – | > 100 | – | > 100 µM | > 100 µM | > 100 µM | > 100 µM | > 100 | > 100 | – | – |
| N#C/C(=C\c1ccc(O)cc1)C(N)=O | > 100 µM | > 100 | > 100 | > 100 | > 100 µM | > 100 µM | > 100 µM | > 100 µM | – | – | – | – |
| OC12CCC3(OC4CCCCO4)c4ccccc4C3C1c1ccccc12 (stereo not given) | > 100 µM | – | – | > 100 | > 100 µM | > 100 µM | > 100 µM | > 100 µM | – | – | – | – |
| Cc1nc2c(C)ccc([N+](=O)[O-])c2c(NCCCN(C)C)c1C | > 100 µM | > 49.6 | > 100 | – | > 70.8 µM | > 100 µM | > 100 µM | > 100 µM | > 100 | > 100 | – | – |
| C=CCNC(=S)NNC(=O)c1c(C)nc2sccn12 | > 100 µM | – | > 100 | > 100 | > 100 µM | – | > 100 µM | > 100 µM | – | – | – | – |
| CCCC1C[C@H]2CCCCN2[C@H]2CCCN12 (stereo not given in full) | > 100 µM | > 100 | > 100 | > 86.9 | > 100 µM | > 100 µM | > 100 µM | > 68 µM | – | – | – | – |
| O=P(CN1CCOCC1)(c1ccccc1)c1ccccc1 | > 100 µM | > 100 | > 100 | > 100 | > 100 µM | > 100 µM | > 100 µM | > 100 µM | – | – | – | – |
